Results reported in patent US20050113450A1, “Antibacterial agents” (priority 2002, published 2005).
Converted amounts (≈) assume the structure as drawn.

Test system: SA 9218
Test: MIC by standard agar dilution method
Type: cell-based
Details: Mueller Hinton agar, 10^4 to 10^5 cells per spot, incubated overnight at 35° C., lowest concentration that inhibits visible growth
Text: The antibacterial agents of this invention have useful activity against a variety of organisms. The in vitro activity of compounds of this invention can be assessed by standard testing procedures such as the determination of minimum inhibitory concentration (MIC) by agar dilution as described in “Approved Standard. Methods for Dilution Antimicrobial Susceptibility Tests for Bacteria That Grow Aerobically”, 3rd. ed., published 1993 by the National Committee for Clinical Laboratory Standards, Villanova, Pa., USA. The in vitro MICs of test compounds were determined by a standard agar dilution method. A stock drug solution of each analog was prepared in the preferred solvent, usually DMSO:H2O (1:3). Serial 2-fold dilutions of each sample are made using 1.0 ml aliquots of sterile distilled water. To each 1.0 ml aliquot of drug was added 9 ml of molten Mueller Hinton agar medium. The drug-supplemented agar was mixed, poured into 15×100 mm petri dishes, and allowed to solidify and dry prior to inoculation. Vials of each of the test organisms are maintained frozen in the vapor phase of a liquid nitrogen freezer. Test cultures are grown overnight at 35° C. on the medium appropriate for the organism. Colonies are harvested with a sterile swab, and cell suspensions are prepared in Trypticase Soy broth (TSB) to equal the turbidity of a 0.5 McFarland standard. A 1:20 dilution of each suspension was made in TSB. The plates containing the drug supplemented agar are inoculated with a 0.001 ml drop of the cell suspension using a Steers replicator, yielding approximately 10^4 to 10^5 cells per spot. The plates are incubated overnight at 35° C. Following incubation the Minimum Inhibitory Concentration (MIC μg/ml), the lowest concentration of drug that inhibits visible growth of the organism, was read and recorded.

| SMILES | MIC | SA 9218 MIC |
| --- | --- | --- |
| O=C(Nc1ccc(Br)cc1C(=O)O)c1ccc(OCC2CCCC2)cc1 | > 128 µg/mL |  |
| O=C(Nc1ccc(Br)cc1C(=O)O)c1ccc(OCc2cccc(C(F)(F)F)c2)cc1 | 32 µg/mL (≈ 64.7 µM) |  |
| CCOC(=O)Oc1c(OC)cc(C(=O)Nc2ccc(Br)cc2C(=O)O)cc1OC | 128 µg/mL (≈ 273 µM) |  |
| O=C(Nc1ccc(C(=O)C2CCCC2)cc1C(=O)O)c1ccc(S(=O)(=O)N2CCc3ccc(Cl)cc32)cc1 | 16 µg/mL (≈ 28.9 µM) |  |
| COc1ccc(C(=O)Nc2ccc(Cl)cc2C(=O)O)cc1[N+](=O)[O-] [PNU-292070] |  | 2 µg/mL |
| Cc1ccc(S(=O)(=O)Nc2ccc3c(c2)OCCO3)cc1C(=O)Nc1ccc(Br)cc1C(=O)O | 64 µg/mL (≈ 117 µM) |  |
| O=C(Nc1ccc(-c2ccc(Cl)cc2)cc1C(=O)O)c1cccc(S(=O)(=O)N2CCc3cc(Cl)ccc32)c1 [PHA-563274] | 2 µg/mL (≈ 3.52 µM) |  |
| N#Cc1ccc(NC(=S)c2cccc(S(=O)(=O)N3CCOCC3)c2)c(C(=O)O)c1 [PHA-662430] | 1 µg/mL (≈ 2.32 µM) |  |
| N#Cc1ccc(NC(=O)c2ccc(S(=O)(=O)N3CCN(c4ccc([N+](=O)[O-])cc4)CC3)cc2)c(C(=O)O)c1 [PHA-571199] | 64 µg/mL (≈ 120 µM) |  |
| N#Cc1ccc(NC(=O)c2ccc(N=[N+]=[N-])c(I)c2)c(C(=O)O)c1 [PHA-748361] | 8 µg/mL (≈ 18.5 µM) |  |
| O=C(Nc1ccc(Br)cc1C(=O)O)c1ccc(OCCNc2ccccc2)cc1 | 64 µg/mL (≈ 141 µM) |  |
| Cc1cccc(C(=O)c2cccc(C(=O)Nc3ccc(Cl)cc3C(=O)O)c2)c1 [PHA-656894] | 16 µg/mL (≈ 40.6 µM) |  |
| CCCCN(CC#N)S(=O)(=O)c1ccc(C(=O)Nc2ccc(C#N)cc2C(=O)O)cc1 [PHA-571203] | 32 µg/mL (≈ 72.6 µM) |  |
| O=C(Nc1ccc(Br)cc1C(=O)O)c1ccc(OCC2CCOC2)cc1 (centres unmarked) | 128 µg/mL (≈ 305 µM) |  |
| O=C(Nc1ccc(Cl)cc1C(=O)O)c1ccc(C(=O)c2ccccc2)cc1 | 4 µg/mL (≈ 10.5 µM) |  |
| O=C(Nc1ccc(Br)cc1C(=O)O)c1cccc(OC2CCOC2=O)c1 (centres unmarked) [PHA-571285] | 64 µg/mL (≈ 152 µM) |  |
| Cc1ccc(S(=O)(=O)N(C)c2ccc(Cl)cc2)cc1C(=O)Nc1ccc(Br)cc1C(=O)O [PNU-290821] | 64 µg/mL (≈ 119 µM) |  |
| O=C(Nc1ccc(C(=O)C2CCCC2)cc1C(=O)O)c1cccc(S(=O)(=O)N2CCc3ccc(Cl)cc32)c1 | 32 µg/mL (≈ 57.9 µM) |  |
| O=C(Nc1ccc(Br)cc1C(=O)O)c1cccc(C#Cc2ccccc2)c1 [PHA-526578] | 2 µg/mL (≈ 4.76 µM) |  |
| O=C(Nc1ccc(-c2cccc([N+](=O)[O-])c2)cc1C(=O)O)c1cccc(S(=O)(=O)N2CCc3cc(Cl)ccc32)c1 [PHA-563275] | 2 µg/mL (≈ 3.46 µM) |  |
| COc1cc(C(=O)Nc2ccc(C#N)cc2C(=O)O)c([N+](=O)[O-])cc1OC | > 128 µg/mL |  |
| O=C(Nc1ccc(Br)cc1C(=O)O)c1ccc(OCCc2ccccn2)cc1 | 128 µg/mL (≈ 290 µM) |  |
| COc1ccc2c(ccn2S(=O)(=O)c2ccc(C(=O)Nc3ccc(Br)cc3C(=O)O)cc2)c1 [PNU-291517] | 2 µg/mL (≈ 3.78 µM) |  |
| CC1CCN(S(=O)(=O)c2ccc(C(=O)Nc3ccc(C#N)cc3C(=O)O)cc2)CC1 [PHA-571240] | 16 µg/mL (≈ 37.4 µM) |  |

| SMILES | MIC | SA 9218 MIC |
| --- | --- | --- |
| COCC(=O)Nc1ccc(C(=O)Nc2ccc(Br)cc2C(=O)O)cc1 [PHA-708987] | > 128 µg/mL |  |
| O=C(Nc1ccc(Br)cc1C(=O)O)c1cccc(S(=O)(=O)n2ccc3cccnc32)c1 [PHA-630331] | 2 µg/mL (≈ 4 µM) |  |
| CCN(CCOc1ccc(C(=O)Nc2ccc(Br)cc2C(=O)O)cc1)c1ccccc1 | 64 µg/mL (≈ 132 µM) |  |
| COc1cc(C(=O)Nc2ccc(C#N)cc2C(=O)O)cc(OC)c1OC | 64 µg/mL (≈ 180 µM) |  |
| CS(=O)(=O)c1cccc(C(=O)c2ccc(C(=O)Nc3ccc(Cl)cc3C(=O)O)cc2)c1 | 32 µg/mL (≈ 69.9 µM) |  |
| O=C(Nc1ccc(Cl)cc1C(=O)O)c1cccc(C(=O)C2CCC2)c1 [PHA-656888] | 16 µg/mL (≈ 44.7 µM) |  |
| Cl.NCc1ccc(C(=O)Nc2ccc(Br)cc2C(=O)O)cc1S(=O)(=O)N1CCc2ccccc21 | > 128 µg/mL |  |
| CCCCCC(=O)NCc1ccc(C(=O)Nc2ccc(C#N)cc2C(=O)O)cc1S(=O)(=O)N1CCc2ccccc21 [PHA-738531] | 64 µg/mL (≈ 111 µM) |  |
| N#Cc1cccc(C(=O)Nc2ccc(Br)cc2C(=O)O)c1 | > 128 µg/mL |  |
| O=C(Nc1ccc(C(=O)Nc2ccc(Br)cc2C(=O)O)cc1)c1ccccc1 [PHA-708977] | > 128 µg/mL |  |
| N#Cc1ccc(NC(=O)c2cccc(S(=O)(=O)N3CCCC3CO)c2)c(C(=O)O)c1 (centres unmarked) [PHA-656863] | 8 µg/mL (≈ 18.6 µM) |  |
| COCC(=O)Nc1cccc(C(=O)Nc2ccc(Br)cc2C(=O)O)c1 [PHA-708986] | 64 µg/mL (≈ 157 µM) |  |
| Cc1oc(-c2ccccc2)nc1CCOc1cccc(C(=O)Nc2ccc(Br)cc2C(=O)O)c1 | 32 µg/mL (≈ 61.4 µM) |  |
| O=C(Nc1ccc(Br)cc1C(=O)O)c1cccc(C(O)c2ccccc2)c1 (centres unmarked) [PHA-566947] |  | 0.5 µg/mL |
| CCN(CC)C(=O)c1c(F)ccc(F)c1C(=O)Nc1ccc(Br)cc1C(=O)O | > 128 µg/mL |  |
| O=C1CCC(COc2cccc(C(=O)Nc3ccc(Br)cc3C(=O)O)c2)N1 (centres unmarked) [PHA-571281] | 128 µg/mL (≈ 295 µM) |  |
| CCC#CCCOc1ccc(C(=O)Nc2ccc(Br)cc2C(=O)O)cc1 | 16 µg/mL (≈ 38.4 µM) |  |
| CC(=O)c1cccc(C(=O)Nc2ccc(Br)cc2C(=O)O)c1 [PHA-522145] | 32 µg/mL (≈ 88.4 µM) |  |
| N#Cc1ccc(NC(=O)c2ccccc2)c(C(=O)O)c1 [PHA-530685] |  | 32 µg/mL |
| CC(C)(C)N1C(=O)c2ccc(C(=O)Nc3ccc(Br)cc3C(=O)O)cc2C1=O [PHA-630989] | 4 µg/mL (≈ 8.98 µM) |  |
| N#Cc1ccc(NC(=O)c2cccc([S+]([O-])C3CCCC3)c2)c(C(=O)O)c1 (centres unmarked) [PHA-630427] | 4 µg/mL (≈ 10.5 µM) |  |
| O=C(Nc1ccc(Br)cc1C(=O)O)c1ccc(OCCc2cccc([N+](=O)[O-])c2)cc1 | 64 µg/mL (≈ 132 µM) |  |
| N#Cc1ccc(NC(=O)c2cccc(S(=O)(=O)n3cnc4ccccc43)c2)c(C(=O)O)c1 [PHA-630330] | 0.5 µg/mL (≈ 1.12 µM) |  |
| O=C(Nc1ccc(Br)cc1C(=O)O)c1cccc(NS(=O)(=O)c2ccc(OC(F)(F)F)cc2)c1 [PHA-708995] | 0.125 µg/mL (≈ 0.223 µM) |  |

| SMILES | MIC | SA 9218 MIC |
| --- | --- | --- |
| CN(C)c1ccc(C(=O)Nc2ccc(Br)cc2C(=O)O)cc1 | 32 µg/mL (≈ 88.1 µM) |  |
| CCOCCOCCOc1cccc(C(=O)Nc2ccc(Br)cc2C(=O)O)c1 | 32 µg/mL (≈ 70.7 µM) |  |
| Cc1cc(C)c(C(=O)Nc2ccc(C(=O)Nc3ccc(Br)cc3C(=O)O)cc2)c(C)c1 [PHA-708982] | 128 µg/mL (≈ 266 µM) |  |
| N#Cc1ccc(NC(=O)c2ccc(F)cc2)c(C(=O)O)c1 | 128 µg/mL (≈ 450 µM) |  |
| O=C(Nc1ccc(I)cc1C(=O)O)c1cccc(S(=O)(=O)N2CCOCC2)c1 [PHA-571458] | 4 µg/mL (≈ 7.75 µM) |  |
| N#Cc1ccc(NC(=O)c2cccc(SCc3ccncc3)c2)c(C(=O)O)c1 [PHA-569044] | 0.25 µg/mL (≈ 0.642 µM) |  |
| O=C(Nc1ccc(-c2ccc(C(F)(F)F)cc2)cc1C(=O)O)c1cccc(S(=O)(=O)N2CCc3cc(Cl)ccc32)c1 [PHA-563285] | 2 µg/mL (≈ 3.33 µM) |  |
| Cc1ccc(-c2ccc(NC(=O)c3cccc(S(=O)(=O)N4CCc5cc(Cl)ccc54)c3)c(C(=O)O)c2)s1 [PHA-563282] | 1 µg/mL (≈ 1.81 µM) |  |
| O=C(Nc1ccc(Br)cc1C(=O)O)c1cc(S(=O)(=O)NC2Cc3ccccc3C2)ccc1Br | 0.25 µg/mL (≈ 0.421 µM) |  |
| CN(c1ccccc1N)S(=O)(=O)c1ccc(C(=O)Nc2ccc(Br)cc2C(=O)O)cc1 [PHA-516113] | 2 µg/mL (≈ 3.97 µM) |  |
| O=C(Nc1ccc(Br)cc1C(=O)O)c1cccc(C(F)(F)F)c1 | 8 µg/mL (≈ 20.6 µM) |  |
| O=C(Nc1ccc(Br)cc1C(=O)O)c1cccc(CCc2ccccc2)c1 [PHA-530989] | 4 µg/mL (≈ 9.43 µM) |  |
| O=C(Nc1ccc(Br)cc1C(=O)O)c1cccc(S(=O)(=O)NC2Cc3ccccc3C2)c1 | 1 µg/mL (≈ 1.94 µM) |  |
| CCN(CC)C(=O)C1CCCN(S(=O)(=O)c2cccc(C(=O)Nc3ccc(C#N)cc3C(=O)O)c2)C1 (centres unmarked) [PHA-571176] | 64 µg/mL (≈ 125 µM) |  |
| CCOCC(=O)c1ccc(C(=O)Nc2ccc(Cl)cc2C(=O)O)cc1 | 16 µg/mL (≈ 44.2 µM) |  |
| Cc1cc(C)n(COc2ccc(C(=O)Nc3ccc(Br)cc3C(=O)O)cc2)n1 | 64 µg/mL (≈ 144 µM) |  |
| CCCCCOc1cccc(C(=O)Nc2ccc(Br)cc2C(=O)O)c1 | 8 µg/mL (≈ 19.7 µM) |  |
| CON=C(c1cccc(C(=O)Nc2ccc(Cl)cc2C(=O)O)c1)c1ccco1 | 16 µg/mL (≈ 40.1 µM) |  |
| COc1cc2c(cc1OC)CN(S(=O)(=O)c1cccc(C(=O)Nc3ccc(C#N)cc3C(=O)O)c1)CC2 [PHA-571194] | 4 µg/mL (≈ 7.67 µM) |  |
| O=C(O)c1ccc([N+](=O)[O-])cc1/C=C\c1cccc(S(=O)(=O)N2CCc3cc(Cl)ccc32)c1 [PHA-568197] | 16 µg/mL (≈ 33 µM) |  |
| CSc1ccc(Cl)c(C(=O)Nc2ccc(Br)cc2C(=O)O)c1 | > 128 µg/mL |  |
| N#Cc1ccc(NC(=O)c2cccc(Oc3cccc(F)c3)c2)c(C(=O)O)c1 [PHA-562731] | 1 µg/mL (≈ 2.66 µM) |  |
| CN(C)c1ccc(C(=O)c2ccc(C(=O)Nc3ccc(Cl)cc3C(=O)O)cc2)cc1 | 16 µg/mL (≈ 37.8 µM) |  |
